What was measured:
plants = conditions: cited from earlier work
mosquitoes = assay: Mosquito mortality with insecticide-sprayed water-filled containers in a closed area; assay type: in vivo; conditions: containers double sprayed, after about 4 weeks
Description: The biodegradable containers also successfully functioned as a mosquito trap. For example, containers were double sprayed with lambda-cyalothrin, filled with water and placed in a closed area with a known number of mosquitoes. After about 4 weeks, mosquito mortality was measured by counting the number of live mosquitoes compared to the dead mosquitoes. 100% mosquito mortality was achieved.

Compound | incompatibility on cultivated plants (plants) | phytotoxicity to most plants (plants; when used as directed) | mosquito mortality (mosquitoes)
CC1(C)C(C=C(Cl)Cl)C1C(=O)OCc1cccc(Oc2ccccc2)c1 (stereo not drawn) [permethrin] | No incompatibility has been observed | not phytotoxic | –
CC1(C)[C@H](C(=O)O[C@H](C#N)c2cccc(Oc3ccccc3)c2)[C@@H]1/C=C(\Cl)C(F)(F)F [lambda-cyalothrin] | – | – | 100%

From patent US11091876B2, “Moisture resistant biodegradable composition” (AUTOM RIVER INC., priority 2015, dated 2021)
